The values that follow come from ChEMBL document CHEMBL3507680, “University of Dundee, Gates Library screen for HepG2 cell viability”.

The nature of this data set: Human HepG2 cell viability assay in 384 well format. The class given is toxicity, cell-based. On the set-up: dose 125 nL, time 70.5 hour; concentration not given beside the values. To be noted: HepG2 cells, read-out: Inhibition.
For `CN(C)C(=O)[C@@H]1CC[C@@H]2[C@@H](CCN2Cc2ccccn2)O1`, the cytotoxicity at 70.5 h is -7.99%. With `c1ccc(CCNc2cccc(C3CCCNC3)n2)cc1` (stereo unspecified) the figure was 6.58%; with `O=C(CCC1CCCCO1)NCc1cnn(-c2ccc(F)cc2F)c1` (stereo unspecified), 8.18%; with `Cc1cnn(CCCNC2Cc3ccccc3C2)c1`, 9.93%.

As for `CCN(Cc1nc2c(cnn2C)c(=O)[nH]1)c1cccc(Cl)c1`, the cytotoxicity at 70.5 h was -15.8%.

Take `N#Cc1nccnc1N1CCC(C(O)c2cccs2)CC1` (stereo unspecified): the cytotoxicity at 70.5 h turned out to be 10.4%. For `Cc1ccc(NC(=O)CCC2CC2)cc1N1CCOC1=O`, the cytotoxicity at 70.5 h is -10.8%.

On to `CCC(CNS(=O)(=O)c1cccc(C(=O)OC)c1)N1CCCC1` (stereo unspecified), for which the cytotoxicity at 70.5 h was -10.7%.

`CC(Cn1cccn1)C(=O)N1CCCN(Cc2cscn2)CC1` (stereo unspecified): the cytotoxicity at 70.5 h was -0.68%.

For `CNC(=O)c1ccc(NC(=O)NC(C)c2cc(C)oc2C)c(C)c1` (stereo unspecified), the cytotoxicity at 70.5 h is -5.7%.

Take `C[C@@H]1CN(c2cc(N3CCC(O)CC3)ncn2)C[C@@]1(O)C1CCC1`: the cytotoxicity at 70.5 h was determined as 35.1%. Turning to `Cc1cnn(CC2CN(Cc3nc(-c4ccco4)no3)CCO2)c1` (stereo unspecified), the cytotoxicity at 70.5 h is -0.209%. With `N#Cc1cnc2c(F)cc(F)cc2c1NC1CCN(CC(N)=O)CC1` the figure was -5.14%.

With `COc1ccc(OCc2cc(C(=O)N3CCC(O)CC3)n[nH]2)c(Cl)c1`, the cytotoxicity at 70.5 h is -5.72%.

On to `CCn1ccnc1CN1CCN(Cc2cnc(C)cn2)CC1C` (stereo unspecified), for which the cytotoxicity at 70.5 h came to 4.47%. In the case of `Cc1ccc(C(=O)N2C[C@H](OCc3cccnc3)[C@H]3COC[C@H]32)cn1`, the cytotoxicity at 70.5 h is -2.21%. With `COc1ccc(CNC(=O)NCC(=O)NC2CC2)c(C(F)(F)F)c1` the figure was 21.2%; with `Cc1nccc(N[C@H]2CN(C(=O)C3(C#N)CCOCC3)C[C@@H]2C(C)C)n1`, 12%; with `c1ccc2sc(N3CCCC(Cn4cncn4)C3)nc2c1` (stereo unspecified), -6.17%. With `CCOCCCNc1cc(C)nn2cnnc12` the figure was 7.54%; with `O=C(c1ccncc1)N1CC[C@H]2[C@H]1CCN2S(=O)(=O)C1CC1`, -5.53%; with `Cc1nnc2n1CCN(C(=O)c1ccn(-c3cccc(F)c3)n1)C2`, 5.14%. With `FC(F)(F)c1cc(C2CCCN(c3ncccn3)C2)n2ccnc2n1` (stereo unspecified) the figure was -2.5%; with `c1cn(-c2nccnc2C2CCCN(C3CCOCC3)C2)cn1` (stereo unspecified), -5.56%; with `CCN1CCCC1CNCc1cc2cc(OC)c(OC)cc2[nH]c1=O` (stereo unspecified), -1.47%. Consider `CCN(C)Cc1cccc(CNC(=O)CSCc2ccccn2)c1`, for which the cytotoxicity at 70.5 h is -15.2%. Consider `CC(C)n1nc(O)c2c1NC(=O)CSC2c1cnn(C)c1` (stereo unspecified), for which the cytotoxicity at 70.5 h is -19.6%. For `O=C(Cc1ccc(Cl)cc1)N1CCC(O)(C(F)(F)F)C1` (stereo unspecified), the cytotoxicity at 70.5 h is -2.11%.

Consider `O=C(C1CCC1)N1CCO[C@H]2[C@H](OCCCn3cccn3)CC[C@@H]21`, for which the cytotoxicity at 70.5 h was found to be 29%. With `COCCNC(=O)NCc1cccc(-n2ccnc2)c1` the figure was -13.7%; with `Cn1nc(C(=O)NC2CCCC2)cc1NC(=O)C1CC1`, -8.78%. With `Cn1nc(Cn2ccnc2)c2c1CN(C(=O)c1ccoc1)C2` the figure was -9.72%; with `Fc1ccc(CC2CCN(Cc3nccs3)CC2)cc1`, -7.34%; with `Cc1nn(C)c(C)c1CC(=O)N1CCCC(CNS(C)(=O)=O)C1` (stereo unspecified), -0.898%. With `COc1ccc(OC)c(CNCc2c(C)nc3sc(C)cn23)c1` the figure was 16.5%; with `Cn1ccnc1C(O)(CCNCc1ccc(Cl)o1)C(F)(F)F` (stereo unspecified), -14.8%; with `CCn1ncc2c1C(COC)N(C(=O)CCc1ccccc1)CC2` (stereo unspecified), 11.6%. In the case of `O=C(c1csnn1)N1CCc2[nH]nc(COc3cccc(Cl)c3)c2C1`, the cytotoxicity at 70.5 h is -2.42%.

On to `Cc1ccccc1-n1ncc(C(=O)N2CCCC2c2cnn(C)c2)c1C` (stereo unspecified), for which the cytotoxicity at 70.5 h is -13.6%. `O=C(O)c1cc(-c2ccn(CC3CC3)n2)n2ccccc12`: the cytotoxicity at 70.5 h was -1.77%. With `Cc1ccc(CNC(=O)c2nc3c(n2C)CCN(c2ncccn2)C3)o1` the figure was -1.28%; with `COc1ccc(CN2Cc3[nH]nc(C(=O)N(C)C)c3C2)cc1`, -11.8%. With `CCn1cnnc1CNC(=O)NCC(C(C)C)N1CCC(C)CC1` (stereo unspecified) the figure was 10.3%.

On to `Cc1cc(C(=O)N2C[C@@H]3COC[C@]3(COCc3cccnc3)C2)no1`, for which the cytotoxicity at 70.5 h was -12%. With `CN1CCC(Nc2ccc(Cl)cc2OCC(F)(F)F)C1=O` (stereo unspecified) the figure was -3.11%; with `NC(=O)c1cccc(OCC(=O)NS(=O)(=O)c2ccc3c(c2)CCC3)c1`, -0.191%. With `Cc1nc(CN2C(=O)COC3(CCN(Cc4nccs4)CC3)C2C)cs1` (stereo unspecified) the figure was -6.92%; with `CC[C@H]1CN(C(=O)c2cnc(CN3CCCC3)s2)CC[C@@]1(C)O`, 22.4%; with `CC(C)N1CC(n2ccnc2-c2nccn2C)CC1=O` (stereo unspecified), -7.49%. With `CN(C)C1(CNC(=O)Cc2ccc(F)cc2)CCOCC1` the figure was -5.15%; with `CCc1n[nH]c(C2CN(C(=O)c3ccc4c(c3)COC4)CCO2)n1` (stereo unspecified), 18%. In the case of `Cc1ccc(CN2CCN(c3ncccc3C(N)=O)CC2CCO)cc1` (stereo unspecified), the cytotoxicity at 70.5 h is -2.3%. With `Cc1nccn1-c1ccc(=O)n(CCNC(=O)c2cccs2)n1` the figure was -11.7%. With `COCCN(Cc1ccc(C)cc1)Cc1c[nH]cn1` the figure was -7.56%. As for `CCOCCCC(=O)NCCC(=O)N1CCN(c2ccccn2)CC1`, the cytotoxicity at 70.5 h was -13.4%. In the case of `CCCn1cc(NC(=O)c2cccc3cccnc23)ccc1=O`, the cytotoxicity at 70.5 h is -17.8%. On to `CCCN(C(=O)CN1CCN(CC(C)O)CC1)C1=CCCCC1` (stereo unspecified), for which the cytotoxicity at 70.5 h worked out at 35.9%. With `Cc1cnn(CC(C)NCc2csc(-c3ccsc3)n2)c1` (stereo unspecified) the figure was -0.817%; with `Cc1nc(CN2C(=O)CCC23CCN(Cc2ccco2)CC3)cs1`, -1.31%. Turning to `O=C(C1CCCOC1)N1CCc2ccc(F)cc21` (stereo unspecified), the cytotoxicity at 70.5 h is 1.26%. With `FC(F)(F)C1CCc2nnc(CNCc3ccsc3)n2C1` (stereo unspecified) the figure was -2.38%; with `CSc1nccn1-c1cccc(C(=O)NCCCN2CCOCC2)c1`, 1.7%. Take `CCN1CC(COC(C)(C)C)Oc2ccncc2S1(=O)=O` (stereo unspecified): the cytotoxicity at 70.5 h was -4.84%. In the case of `O=C(NC1CCC1)[C@@H]1C[C@@H]2CCN(CCc3ccccc3)C[C@H]2O1`, the cytotoxicity at 70.5 h was -8.97%. `CC(C)c1ncncc1C(=O)N1CCN(Cc2cscn2)CC1`: the cytotoxicity at 70.5 h is 22.6%. In the case of `COCC1CCCN(C(=O)c2cc(Cn3ccc4ccccc43)[nH]n2)C1` (stereo unspecified), the cytotoxicity at 70.5 h is -6.02%.

With `CN1CCN(S(=O)(=O)NCC2COc3ccccc3C2)CC1` (stereo unspecified), the cytotoxicity at 70.5 h is -3.52%.

Regarding `Cc1cc(C(=O)N2CCCC3(COCCN(CCN(C)C)C3)C2)no1` (stereo unspecified), the cytotoxicity at 70.5 h stood at 1.65%. With `CCC(=O)N1CCC(n2cc(C(C)(C)O)nn2)CC1` the figure was -6.93%.

As to `O=C(CN1CCc2c(ncn2C2CC2)C1)NC1CCN(C2CC2)CC1`, the cytotoxicity at 70.5 h amounted to 16.5%. With `CCc1cc(C(=O)N2CCCn3nc(CCC(=O)O)cc3C2)cs1` the figure was -8.44%.
